The test system of one series is lung gross pathology. Briefly: Generalized Schwartzmann Reaction (Example 28 A). Format: in vivo, rabbit. Particulars: P < 0.01. The protocol:
The Generalized Schwartzmann Reaction (GSR) is a pathology in which two intravenous injections of non-lethal amounts of bacterial endotoxin, when separated by 8 to 36 hours, promote thrombotic and tissue-destructive processes in the lung, producing disseminated pulmonary thrombosis and necrosis in otherwise untreated rabbits.
A. In this study, eight six-week old salmonella-free male rabbits each weighing about 1.5 kg were injected IV with saline vehicle and eight similar rabbits were injected IV with 50 mg/kg of Compound III in the same vehicle. One hour later, all of the animals were injected IV with 100 μg of E. coli lipopolysaccharide (LPS; Sigma Chemical Co.) on day one and with the same amount of LPS on day two, twenty hours later. Animals were evaluated for clinical signs at 24 and 48 hours, and were sacrificed for organ evaluation 48 hours after the second endotoxin injection.
In assessing gross pathology, separate scores were developed in four categories and these were then summed and added, in one instance, to a score for clinical signs.
Gross Pathology Categories
(1) Surface redness, diffuse or mottled (reflecting hyperemia, hemostasis).+2 to +4.
(2) Discrete focal surface lesions (reflecting thrombosis without disruption of gross pulmonary architecture).

A short description of series [1]: Chronic toxicity in C57 Black mice by drinking water (Example 29 B). Particulars: 28 days, average daily dose 175 mg/kg. Type of series: in vivo. The protocol:
However, eight mice were treated with Compound III by drinking water, for a period of 28 days. During this time, the average daily dose consumed was 175 mg/kg.

Structures can show the parent of a compound that is named as a salt.

As to `CC1(C)O[C@H]2O[C@H]([C@@H](COS(=O)(=O)O)OS(=O)(=O)O)[C@H](OS(=O)(=O)O)[C@H]2O1` [Compound III, 1,2-O-(2-Propylidene)-3,5,6-tri-O-sulfo-α-D-glucofuranose, tripotassium salt], the “Mean Pathology score” value in the series on lung gross pathology (50 mg/kg IV one hour before LPS, untreated 8.00 ± 1.02) amounted to 2.25 ± 1.10. For the same molecule, the “Drug Effect on mean pathology score” value in the series on lung gross pathology (50 mg/kg IV) is on record as -72%. Moreover, the “body weight and appearance at termination versus controls” value in series [1] was “weighed as much as the controls, and looked sleeker”.

For the origin of these results see US5358936A, “Anionic furanose derivatives, methods of making and using the same” (Gordon; Paul, priority 1991, dated 1994).
